Measured values as given in patent US10435375B2, “CXCR4 chemokine receptor modulators” (NORTHWESTERN UNIVERSITY, priority 2015, dated 2019).
pIC50: −log10 of the molar value. Entries after “also recorded” stand apart in the source; their conditions may differ.

Assays:
CXCR4 [1] = biological target: T1, CXCR4 (Homo sapiens, UniProt P61073); assay: Calcium imaging ((Ca)i mobilization) assay, fura-2, C8161 melanoma cells; format: cell-based; design: human melanoma cell line C8161 was initially used, which expresses numerous human CXCR4 receptors; endogenous in cells; host or cells: C8161 human melanoma cells; conditions: for compound's (Ca)i response in presence of CXCR4 antagonist AMD3100: AMD3100 1 μM where stated; for own (Ca)i response (agonist effect): compounds 10 μM where stated, SDF-1 100 nM; for Ca^2+ Assay: Table 1, calcium imaging behavior; for Pharmacology: Table 2, agonist or antagonist; for effect on SDF-1-induced (Ca)i response: test compounds 10 μM; for pIC50: multiple concentrations, dose-response, read-out: estimated IC50 (antagonism of SDF-1 (Ca)i response)
Excerpt: The initial assay for examining the activity of different molecules was based on the fact that activation of CXCR4 receptors produces an increase in the intracellular free Ca^2+ concentration (Ca)i. This signal can easily be observed using a fluorescent Ca^2+ sensing dye such as fura-2. The quantitative nature of this assay makes it ideal for screening purposes. Moreover, the assay can also distinguish potential antagonists from potential agonists. The aggressive human melanoma cell line C8161 was initially used, which expresses numerous human CXCR4 receptors and produces strong (Ca)I signals when stimulated with SDF-1 (FIG. 3). In the assay, cells were usually stimulated twice with SDF-1. […] To test a drug, the compound in question was usually added prior to the second stimulation with SDF-1. At this point it was possible to observe whether the compound itself acted as an agonist by giving its own response or if it reduced the magnitude of the second response to SDF-1. […] Each of the four antagonists were then assayed at multiple concentrations to obtain a dose-response relationship and an estimated IC50. Antagonists NUCC-388, 397, 392, and 51420 had IC50 values of 0.3 μM, 3 μM, 1 μM, and 1 μM respectively.

CXCR4 [2] = biological target: T1, CXCR4; assay: (Ca)i mobilization assay using CXCR4 expressing U87 cells; format: cell-based; design: host or cells: U87 glioblastoma cells
CXCR4-YFP = biological target: T2, CXCR4-YFP (Homo sapiens, UniProt P61073); assay: Internalization of YFP-tagged CXCR4 receptors in HEK293 cells; format: cell-based; conditions: for CXCR4-YFP receptor internalization: 2 hours, SDF-1 100 nM, NUCC-390 10 μM; for inhibition of NUCC-390-induced CXCR4-YFP internalization: AMD3100 1 μM
T2 construct: expressed in transfected cells; host or cells: HEK293 cells

C8161 cells = assay: Chemotaxis of C8161 cells, Boyden chamber assay; format: cell-based, human; conditions: SDF-1 100 nM, NUCC-390 10 μM, p<0.01, n=6
Excerpt: Chemokines are well known for their ability to stimulate chemotaxis of leukocytes and stem cells. In order to further establish the biological activity of the CXCR4 agonists, the ability of SDF-1 and NUCC-390 to produce chemotaxis of C8161 cells was compared using a Boyden chamber assay.

U937 cells = assay: Cell viability assay, U937 cells, with Ara-C; format: cell-based
Experimental: FIG. 20. Cell viability assay with agonist NUCC-390 and known chemotherapeutics. The first bar is viability no NUCC-390 or Ara-C. Otherwise, the concentration of NUCC-390 was maintained at 50 μM in all experiments. U937 cells were treated with NUCC-390 and the indicated concentration of Ara-C.

CXCR4 [3] = biological target: T1, CXCR4; assay: ERK activation (pERK, Western blot) in C8161 cells; format: cell-based; design: human melanoma cell line C8161 was initially used, which expresses numerous human CXCR4 receptors; endogenous in cells; host or cells: C8161 human melanoma cells; conditions: SDF-1 100 nM, NUCC-390 10 μM, 30 min
Excerpt: To further explore the agonist potential of compound NUCC-390, changes in signaling downstream of CXCR4 were examined. For these experiments, lysates were collected from treated C8161 cells and analyzed them using Western blot. […] That drug NUCC-390 has the capability of stimulating signaling activity downstream of CXCR4 receptors further supports the observation that NUCC-390 acts as a CXCR4 agonist.

[4] = C8161 cells, listed as NUCC-398
[5] = C8161 cells, listed as NUCC-390

T2 sequence (P61073 whole entry): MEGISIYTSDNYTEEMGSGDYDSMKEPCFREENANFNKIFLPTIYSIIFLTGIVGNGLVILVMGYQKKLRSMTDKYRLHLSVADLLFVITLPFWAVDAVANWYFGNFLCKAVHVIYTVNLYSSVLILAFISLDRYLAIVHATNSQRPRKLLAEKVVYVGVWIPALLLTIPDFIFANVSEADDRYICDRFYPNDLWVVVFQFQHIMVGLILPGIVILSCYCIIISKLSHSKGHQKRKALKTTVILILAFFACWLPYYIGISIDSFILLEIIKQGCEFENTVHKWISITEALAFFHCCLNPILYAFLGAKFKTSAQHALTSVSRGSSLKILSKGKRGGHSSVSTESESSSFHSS
T1 sequence (P61073 whole entry): as above

COCCNC(=O)c1nn(CCC(C)C)c2c1CN(Cc1ncc[nH]1)CC2 [NUCC-0000398, 5-((1H-imidazol-2-yl)methyl)-1-isopentyl-N-(2-methoxyethyl)-4,5,6,7-tetrahydro-1H-pyrazolo(4,3-c)pyridine-3-carboxamide]
compound's (Ca)i response in presence of CXCR4 antagonist AMD3100 (CXCR4 [1]; [4]): completely inhibited; also recorded: inhibited by AMD3100 | own (Ca)i response (agonist effect) (CXCR4 [1]; [4]): produced their own response; also recorded: robust agonist activity; also recorded: Agonist effects | Ca^2+ Assay (CXCR4 [1]): Agonist | Pharmacology (CXCR4 [1]): Agonist

CCCn1nc(C(=O)N(C)C)c2c1CCC(NCCCN1CCCC1=O)C2 (stereo not drawn) [NUCC-0176311]
own (Ca)i response (agonist effect) (CXCR4 [1]; C8161 cells): robust calcium response | Pharmacology (CXCR4 [1]): Agonist

COCCn1c(C(=O)OC)c(NC(=O)CCc2ccccc2)c2cc(NCCC(C)c3ccccc3)cnc21 (stereo not drawn) [NUCC-0000393]
Pharmacology (CXCR4 [1]): Agonist

Cc1ncsc1CCn1nc(C(=O)NC2CC2)c2c1CCN(Cc1ccc3c(c1)OCO3)C2 [NUCC-0000387]
Pharmacology (CXCR4 [1]): Agonist

CCCn1nc(C(=O)N(C)C)c2c1CCC(NCCc1cccnc1)C2 (stereo not drawn) [NUCC-0176308]
compound's (Ca)i response in presence of CXCR4 antagonist AMD3100 (CXCR4 [1]; C8161 cells): prevented calcium signaling | own (Ca)i response (agonist effect) (CXCR4 [1]; C8161 cells): robust calcium response | Pharmacology (CXCR4 [1]): Agonist

CCCn1nc(C(=O)N(C)Cc2ccccc2)c2c1CCC(NCc1ccc(F)cc1)C2 (stereo not drawn) [NUCC-0176303]
own (Ca)i response (agonist effect) (CXCR4 [1]; C8161 cells): robust calcium response | Pharmacology (CXCR4 [1]): Agonist

Cn1nc(C(=O)N2CCCCC2)c2c1CCC(NCc1ccc(F)cc1)C2 (stereo not drawn) [NUCC-0176290]
own (Ca)i response (agonist effect) (CXCR4 [1]; C8161 cells): robust calcium response | effect on SDF-1-induced (Ca)i response (CXCR4 [1]; C8161 cells): blocks the effect of SDF-1 | Pharmacology (CXCR4 [1]): Antagonist

CCCn1nc(C(=O)N2CCCCC2)c2c1CCC(NCCCN1CCCC1=O)C2 (stereo not drawn) [NUCC-0054120, 1-(3-((3-(Piperidine-1-carbonyl)-1-propyl-4,5,6,7-tetrahydro-1H-indazol-5-yl)amino)propyl)pyrrolidin-2-one]
pIC50 (CXCR4 [1]; C8161 cells): 6.00 | effect on SDF-1-induced (Ca)i response (CXCR4 [1]; C8161 cells): antagonized the effects of SDF-1 | Ca^2+ Assay (CXCR4 [1]): Agonist | Pharmacology (CXCR4 [1]): Antagonist

Cn1nc(C(=O)N2CCCCC2)c2c1CCC(NCCCN1CCOCC1)C2 (stereo not drawn) [NUCC-0176288]
own (Ca)i response (agonist effect) (CXCR4 [2]): robust calcium response | effect on SDF-1-induced (Ca)i response (CXCR4 [1]; C8161 cells): blocks the effect of SDF-1 | Pharmacology (CXCR4 [1]): Antagonist

CCCn1nc(C(=O)N2CCCCC2)c2c1CCC(NCCc1ccncc1)C2 (stereo not drawn) [NUCC-0000390, Piperidin-1-yl(1-propyl-5-((2-(pyridin-4-yl)ethyl)amino)-4,5,6,7-tetrahydro-1H-indazol-3-yl)methanone]
CXCR4-YFP receptor internalization (CXCR4-YFP): causes most of the CXCR4 receptor to become internalized | chemotaxis (C8161 cells): matched by the effects of NUCC-390 | effect on cell viability, compound alone (U937 cells; NUCC-390 50 μM): only a modest effect by itself | effect on cytotoxicity of Ara-C in combination (U937 cells; NUCC-390 50 μM plus Ara-C): significantly increased the cytotoxicity of Ara-C | compound's (Ca)i response in presence of CXCR4 antagonist AMD3100 (CXCR4 [1]; [5]): completely inhibited; also recorded: completely blocked by AMD3100 | own (Ca)i response (agonist effect) (CXCR4 [1]; [5]): produced their own response; also recorded: effects were similar to those produced by SDF-1; also recorded: strong (Ca)i response; also recorded: produced agonist effects | Ca^2+ Assay (CXCR4 [1]): Agonist | Pharmacology (CXCR4 [1]): Agonist | level of phosphorylated ERK (pERK) (CXCR4 [3]): increased levels of pERK; also recorded: Increase in pERK

CCCn1nc(C(=O)N(C)Cc2ccccc2)c2c1CCC(NCCc1ccncc1)C2 (stereo not drawn) [NUCC-0176299]
own (Ca)i response (agonist effect) (CXCR4 [2]): robust calcium response | effect on SDF-1-induced (Ca)i response (CXCR4 [1]; C8161 cells): blocks the effect of SDF-1 | Pharmacology (CXCR4 [1]): Antagonist

CCCn1nc(C(=O)N2CCCCC2)c2c1CCC(NCCCN1CCOCC1)C2 (stereo not drawn) [NUCC-0054127]
compound's (Ca)i response in presence of CXCR4 antagonist AMD3100 (CXCR4 [1]; C8161 cells): inhibited by AMD3100 | own (Ca)i response (agonist effect) (CXCR4 [1]; C8161 cells): robust agonist activity | Ca^2+ Assay (CXCR4 [1]): Agonist | Pharmacology (CXCR4 [1]): Agonist

CN(C)CCNC1CCc2c(c(C(=O)N(C)Cc3ccccc3)nn2C)C1 (stereo not drawn) [NUCC-0000388]
inhibition of NUCC-390-induced CXCR4-YFP internalization (CXCR4-YFP): completely inhibited | inhibition of NUCC-390-induced (Ca)i response (CXCR4 [1]; C8161 cells): inhibited | pIC50 (CXCR4 [1]; C8161 cells): 6.52 | effect on SDF-1-induced (Ca)i response (CXCR4 [1]; C8161 cells, listed as NUCC-388): antagonized the effects of SDF-1; also recorded: blocks the effect of SDF-1; also recorded: completely inhibited the second addition of SDF-1 | Ca^2+ Assay (CXCR4 [1]): Antagonist | Pharmacology (CXCR4 [1]): Antagonist

c1cc(CN2CCCNCCNCCCNCC2)ccc1CN1CCCNCCNCCCNCC1 [AMD3100, reference compound]
inhibition of NUCC-390-induced CXCR4-YFP internalization (CXCR4-YFP): blocks internalization | inhibition of NUCC-390-induced CXCR4-YFP internalization (CXCR4-YFP; listed as AMD-3100): completely inhibited | effect on SDF-1-induced (Ca)i response (CXCR4 [1]; C8161 cells): completely blocked stimulation with SDF-1; also recorded: blocked the effects of SDF-1

CCCn1nc(C(=O)N2CCCCC2)c2c1CCC(NCc1ccc(F)cc1)C2 (stereo not drawn) [NUCC-0176306]
compound's (Ca)i response in presence of CXCR4 antagonist AMD3100 (CXCR4 [1]; C8161 cells): prevented calcium signaling | own (Ca)i response (agonist effect) (CXCR4 [1]; C8161 cells): robust calcium response | Pharmacology (CXCR4 [1]): Agonist

SDF-1: cognate agonist for CXCR4, the 93 amino acid protein CXCL12 (SDF-1)
CXCR4-YFP receptor internalization (CXCR4-YFP): pronounced internalization of CXCR4-YFP; also recorded: causes most of the CXCR4 receptor to become internalized | chemotaxis (C8161 cells): robust chemotactic activity | own (Ca)i response (agonist effect) (CXCR4 [1]; C8161 cells): two strong (Ca)i responses | level of phosphorylated ERK (pERK) (CXCR4 [3]): increased levels of phosphorylated ERK; also recorded: Increase in pERK

COC(=O)c1c(NC(=O)C2CCOC2)c2cc(NCC(C)Cc3ccc4c(c3)OCO4)cnc2n1CCCc1ccccc1 (stereo not drawn) [NUCC-0000392]
pIC50 (CXCR4 [1]; C8161 cells): 6.00 | effect on SDF-1-induced (Ca)i response (CXCR4 [1]; C8161 cells): antagonized the effects of SDF-1 | Pharmacology (CXCR4 [1]): Antagonist

CCCn1nc(C(=O)N(C)Cc2ccccc2)c2c1CCC(NCCCN1CCOCC1)C2 (stereo not drawn) [NUCC-0176301]
compound's (Ca)i response in presence of CXCR4 antagonist AMD3100 (CXCR4 [1]; C8161 cells): prevented calcium signaling | own (Ca)i response (agonist effect) (CXCR4 [1]; C8161 cells): robust calcium response | Pharmacology (CXCR4 [1]): Agonist

CCCn1nc(C(=O)N2CCCCC2)c2c1CCC(NCCc1cccnc1)C2 (stereo not drawn) [NUCC-0054118, Piperidin-1-yl(1-propyl-5-((2-(pyridin-3-yl)ethyl)amino)-4,5,6,7-tetrahydro-1H-indazol-3-yl)methanone]
compound's (Ca)i response in presence of CXCR4 antagonist AMD3100 (CXCR4 [1]; C8161 cells): inhibited by AMD3100 | own (Ca)i response (agonist effect) (CXCR4 [1]; C8161 cells): robust agonist activity | Ca^2+ Assay (CXCR4 [1]): Antagonist | Pharmacology (CXCR4 [1]): Agonist

COC(=O)c1c(NC(=O)[C@H]2CCOC2)c2cc(NC[C@H](C)Cc3ccc4c(c3)OCO4)cnc2n1CCCc1ccccc1 [NUCC-0000392]
Ca^2+ Assay (CXCR4 [1]): Antagonist
